# Values joined by “and” are separate entries in the source; they are usually repeats but may differ in a detail not shown here. Identical values can stand only once. Results filed as inconclusive are left out.
# System: nude mice, LX-1 lung xenograft intrarenal, tumor weight T/C
# Test: NCI In Vivo Anticancer Drug Screen. Data for tumor model Human Lung LX-1 Xenograft (intrarenal inoculation) in NU/NU Swiss (nude) mice
# Settings: endpoint: mean tumor weight change, higher = larger tumour
# Outline: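 Activity was scored by measuring tumors in treated animals and in vehicle controls, then reporting the treated result as a fraction of the control result.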
# [1] = dose: 300.0 mg/kg/injection, schedule: Q04DX003 (sc), vehicle: Klucel (hydroxypropylcellulose) (HPC)
# [2] = dose: 600.0 mg/kg/injection, schedule: Q04DX003 (sc), vehicle: Klucel (hydroxypropylcellulose) (HPC)
# [3] = dose: 1200.0 mg/kg/injection, schedule: Q04DX003 (sc), vehicle: Klucel (hydroxypropylcellulose) (HPC)
# [4] = dose: 2400.0 mg/kg/injection, schedule: Q04DX003 (sc), vehicle: Klucel (hydroxypropylcellulose) (HPC)
# [5] = dose: 300.0 mg/kg/injection, schedule: Q04DX003 (sc), vehicle: saline with Tween-80
# [6] = dose: 600.0 mg/kg/injection, schedule: Q04DX003 (sc), vehicle: saline with Tween-80
# [7] = dose: 1200.0 mg/kg/injection, schedule: Q04DX003 (sc), vehicle: saline with Tween-80
# [8] = dose: 2400.0 mg/kg/injection, schedule: Q04DX003 (sc), vehicle: saline with Tween-80
# [9] = dose: 150.0 mg/kg/injection, schedule: Q04DX003 (sc), vehicle: saline with Tween-80
# [10] = dose: 50.0 mg/kg/injection, schedule: Q01DX010 (sc), vehicle: saline
# [11] = dose: 200.0 mg/kg/injection, schedule: Q01DX010 (sc), vehicle: saline
# [12] = dose: 100.0 mg/kg/injection, schedule: Q01DX010 (sc), vehicle: saline with Tween-80
# [13] = dose: 200.0 mg/kg/injection, schedule: Q01DX010 (sc), vehicle: saline with Tween-80
# [14] = dose: 400.0 mg/kg/injection, schedule: Q01DX010 (sc), vehicle: saline with Tween-80
compound,measurement,setting,value
CCC1(O)CC2CN(CCc3c([nH]c4ccccc34)C(C(=O)OC)(c3cc4c(cc3OC)N(C)C3C(O)(C(=O)NCCSSCCNC(=O)C5(O)C(O)C6(CC)C=CCN7CCC8(c9cc(C%10(C(=O)OC)CC%11CN(CCc%12c%10[nH]c%10ccccc%12%10)CC(O)(CC)C%11)c(OC)cc9N(C)C58)C76)C(O)C5(CC)C=CCN6CCC43C65)C2)C1 (centres undefined),T/C,"dose: 0.75 mg/kg/injection, schedule: Q04DX003 (sc), vehicle: saline",46 % of control
same,T/C,"dose: 1.5 mg/kg/injection, schedule: Q04DX003 (sc), vehicle: saline",23 % of control and 46 % of control
same,T/C,"dose: 1.5 mg/kg/injection, schedule: Q04DX003 (sc), vehicle: suspension in saline",105 % of control
same,T/C,"dose: 6.0 mg/kg/injection, schedule: Q04DX003 (sc), vehicle: suspension in saline",81 % of control
same,T/C,"dose: 12.0 mg/kg/injection, schedule: Q04DX003 (sc), vehicle: saline",88 % of control
same,T/C,"dose: 12.0 mg/kg/injection, schedule: Q04DX003 (sc), vehicle: suspension in saline",65 % of control
NCCCC(N)(C(=O)O)C(F)F (centres undefined),T/C,"dose: 300.0 mg/kg/injection, schedule: Q04DX003 (sc), vehicle: distilled water + alcohol",101 % of control
same,T/C,"dose: 600.0 mg/kg/injection, schedule: Q04DX003 (sc), vehicle: distilled water + alcohol",87 % of control
same,T/C,"dose: 1200.0 mg/kg/injection, schedule: Q04DX003 (sc), vehicle: distilled water + alcohol",82 % of control
same,T/C,"dose: 2400.0 mg/kg/injection, schedule: Q04DX003 (sc), vehicle: distilled water + alcohol",92 % of control
CCCCOCN(COCCCC)C(C)Cc1ccccc1 (centres undefined),T/C,"dose: 100.0 mg/kg/injection, schedule: Q04DX003 (sc), vehicle: saline with Tween-80",71 % of control
same,T/C,"dose: 200.0 mg/kg/injection, schedule: Q04DX003 (sc), vehicle: saline with Tween-80",85 % of control
same,T/C,"dose: 800.0 mg/kg/injection, schedule: Q04DX003 (sc), vehicle: saline with Tween-80",121 % of control
C/C=C(\C)c1cc(=O)c2c(C)cc3c(c2o1)C(=O)c1c(O)c(C2CC(C)(N(C)C)C(O)C(C)O2)cc(C2CC(N(C)C)C(O)C(C)O2)c1C3=O (centres undefined),T/C,"dose: 2.0 mg/kg/injection, schedule: Q04DX003 (sc), vehicle: saline",76 % of control
same,T/C,"dose: 4.0 mg/kg/injection, schedule: Q04DX003 (sc), vehicle: saline",89 % of control
same,T/C,"dose: 8.0 mg/kg/injection, schedule: Q04DX003 (sc), vehicle: saline",80 % of control
same,T/C,"dose: 16.0 mg/kg/injection, schedule: Q04DX003 (sc), vehicle: saline",35 % of control
CSc1ncc2ncn(C3OC(CO)C(O)C3O)c2n1 (centres undefined),T/C,[1],61 % of control
same,T/C,[2],57 % of control
same,T/C,[3],56 % of control
same,T/C,[4],53 % of control
CC1=CC(=NN=c2cc(C)n([O-])c(C)c2)C=C(C)[N+]1=O,T/C,"dose: 300.0 mg/kg/injection, schedule: Q04DX003 (sc), vehicle: suspension in saline",96 % of control
same,T/C,"dose: 1200.0 mg/kg/injection, schedule: Q04DX003 (sc), vehicle: suspension in saline",77 % of control
CC[C@H](CC[C@@H](C)C1CC[C@H]2[C@@H]3CC=C4C[C@@H](OP(=O)(N5CC5)N5CC5)CC[C@]4(C)[C@H]3CC[C@]12C)C(C)C (some centres undefined),T/C,[5],57 % of control
same,T/C,[6],78 % of control
same,T/C,[7],83 % of control
same,T/C,[8],80 % of control
OC1CCCC2CCC[N-]C12.OC1CCCC2CCC[N-]C12.[Mn+2] (centres undefined),T/C,[1],95 % of control
same,T/C,[2],52 % of control
same,T/C,[3],46 % of control
same,T/C,[4],63 % of control
CN(C)N=Nc1ccc(S(N)(=O)=O)cc1,T/C,"dose: 100.0 mg/kg/injection, schedule: Q01DX010 (sc), vehicle: Klucel (hydroxypropylcellulose) (HPC)",1 % of control and 8 % of control
same,T/C,"dose: 200.0 mg/kg/injection, schedule: Q01DX010 (sc), vehicle: Klucel (hydroxypropylcellulose) (HPC)",3 % of control and 9 % of control
same,T/C,"dose: 800.0 mg/kg/injection, schedule: Q01DX010 (sc), vehicle: Klucel (hydroxypropylcellulose) (HPC)",16 % of control
CSc1nc(=O)[nH]nc1SCc1ccccc1,T/C,"dose: 100.0 mg/kg/injection, schedule: Q04DX003 (sc), vehicle: Klucel (hydroxypropylcellulose) (HPC)",101 % of control
same,T/C,"dose: 200.0 mg/kg/injection, schedule: Q04DX003 (sc), vehicle: Klucel (hydroxypropylcellulose) (HPC)",93 % of control
same,T/C,"dose: 400.0 mg/kg/injection, schedule: Q04DX003 (sc), vehicle: Klucel (hydroxypropylcellulose) (HPC)",64 % of control
same,T/C,"dose: 800.0 mg/kg/injection, schedule: Q04DX003 (sc), vehicle: Klucel (hydroxypropylcellulose) (HPC)",68 % of control
COc1ccc([I+]c2cccc(Cl)c2)cc1Cl,T/C,"dose: 75.0 mg/kg/injection, schedule: Q04DX003 (sc), vehicle: saline with Tween-80",93 % of control
same,T/C,[9],86 % of control
same,T/C,[5],85 % of control
same,T/C,[6],74 % of control
same,T/C,[7],83 % of control
COC(=O)Nc1nc2ccc(SC)cc2c(=O)[nH]1,T/C,[1],93 % of control
same,T/C,[2],93 % of control
same,T/C,[3],95 % of control
same,T/C,[4],92 % of control
Cc1cc(SCC(=O)c2ccc(Br)cc2)cc(C)[o+]1,T/C,[10],111 % of control
same,T/C,[11],116 % of control
C[CH2][Sn]([CH2]C)([CH2]C(=O)OC)[CH2]C(=O)OC,T/C,"dose: 6.25 mg/kg/injection, schedule: Q04DX003 (sc), vehicle: saline with Tween-80",97 % of control
same,T/C,"dose: 12.5 mg/kg/injection, schedule: Q04DX003 (sc), vehicle: saline with Tween-80",92 % of control
same,T/C,"dose: 25.0 mg/kg/injection, schedule: Q04DX003 (sc), vehicle: saline with Tween-80",70 % of control
O=C(O)C1CSCN1 (centres undefined),T/C,"dose: 50.0 mg/kg/injection, schedule: Q01DX010 (sc), vehicle: water",86 % of control
same,T/C,"dose: 100.0 mg/kg/injection, schedule: Q01DX010 (sc), vehicle: water",68 % of control
OCCCN1CCCCC1CO (centres undefined),T/C,"dose: 200.0 mg/kg/injection, schedule: Q04DX003 (sc), vehicle: saline",98 % of control
Cc1ccc2nc(-c3ccc4nc(-c5ccc(N=Nc6ccc(-c7nc8ccc(-c9nc%10ccc(C)c(S(=O)(=O)O)c%10s9)cc8s7)cc6)cc5)sc4c3)sc2c1S(=O)(=O)O,T/C,"dose: 100.0 mg/kg/injection, schedule: Q04DX003 (sc), vehicle: suspension in saline",76 % of control
same,T/C,"dose: 400.0 mg/kg/injection, schedule: Q04DX003 (sc), vehicle: suspension in saline",64 % of control
same,T/C,"dose: 800.0 mg/kg/injection, schedule: Q04DX003 (sc), vehicle: suspension in saline",101 % of control
C=CCNc1nc2c(s1)CCc1cc(OC)c(OC)cc1-2,T/C,[9],89 % of control
Cn1ccc(=Nc2ccc(NC(=O)c3ccc(N=c4ccn(C)c5ccc([N+](=O)[O-])cc45)cc3[N+](=O)[O-])cc2)cc1,T/C,[5],93 % of control
same,T/C,[6],75 % of control
same,T/C,[7],86 % of control
same,T/C,[8],83 % of control
COc1ccc2[nH]c3ccc4cc[n+](CCN5CCC(C6CCN(CC[n+]7ccc8ccc9[nH]c%10ccc(OC)cc%10c9c8c7)CC6)CC5)cc4c3c2c1,T/C,"dose: 150.0 mg/kg/injection, schedule: Q04DX003 (sc), vehicle: Klucel (hydroxypropylcellulose) (HPC)",88 % of control
same,T/C,[1],96 % of control
same,T/C,[2],83 % of control
same,T/C,[3],93 % of control
O=c1[nH]c(=O)n(C2CC(O)C(CO)O2)cc1C(F)(F)F (centres undefined),T/C,[10],91 % of control
same,T/C,"dose: 100.0 mg/kg/injection, schedule: Q01DX010 (sc), vehicle: saline",100 % of control
same,T/C,[11],51 % of control
same,T/C,"dose: 400.0 mg/kg/injection, schedule: Q01DX010 (sc), vehicle: saline",30 % of control
O=C(CO)c1ccc([N+](=O)[O-])cc1,T/C,"dose: 50.0 mg/kg/injection, schedule: Q01DX010 (sc), vehicle: saline with Tween-80",78 % of control
same,T/C,[12],86 % of control
same,T/C,[13],103 % of control
same,T/C,[14],70 % of control
Cc1noc(N)c1N,T/C,"dose: 600.0 mg/kg/injection, schedule: Q04DX003 (sc), vehicle: water",106 % of control
same,T/C,"dose: 1200.0 mg/kg/injection, schedule: Q04DX003 (sc), vehicle: water",94 % of control
CC1(C)CC1(Br)Br,T/C,[12],160 % of control
same,T/C,[13],76 % of control and 77 % of control
same,T/C,[14],58 % of control
COCCCNC1=C(C#N)C(=O)NC(c2cccc([N+](=O)[O-])c2)S1 (centres undefined),T/C,[5],109 % of control
same,T/C,[6],78 % of control
same,T/C,[7],124 % of control
same,T/C,[8],68 % of control

# Reference: PubChem BioAssay AID264 (DTP/NCI, 2004)
